Experimental data reported in patent publication US12516081B2, “Anti-viral compounds and methods of use” (Metro International Biotech, LLC, priority 2020, dated 2026).
Read-outs that look alike come from different tables or passages of the source.

Legend:
SARS-CoV-2, USA-WA1/2020 = test: Antiviral assay: inhibition of SARS-CoV-2 cytopathic effect (neutral red) in Vero 76 cells; assay type: cell-based; settings: read-out: Anti-viral Assay (EC50)
NAD in murine liver = test: In vivo NAD assay, mouse liver; settings: 500 mg/kg oral, mice
Description: (§1) FIG. 1 provides the mean composite NAD assayed concentration in mouse liver cells. The Y-axis is concentration in mmol/kg. […] The left-most bar at each time point is vehicle, the central bar is reference compound nicotinamide mononucleotide (NMN), and the right-most bar at each time point is Compound 2. Each compound is administered orally to mice at 500 mg/kg.
(§2) In vivo NAD and NAAD assay: Animals were dosed with 500 mg/kg of test compound or reference compound in vehicle.

[1] = system: NAAD in murine skeletal muscle; test: In vivo NAAD assay, mouse skeletal muscle; settings: 500 mg/kg oral, mice, 8 hour time point, FIG. 2
Description: as §1, with “2” for “1”, “NAAD” for “NAD”, “skeletal muscle” for “liver”
as §2

[2] = concentration inhibiting CPE by 50%; i) and ii) are separate determinations

Compound: NAR-2′C-methyl 5′-uridine ester [Compound 4]
- EC50 (SARS-CoV-2, USA-WA1/2020; [2]): > 100 µM

Compound: NAR-2′C-methyl-5′-guanosine ester [Compound 3]
- EC50 (SARS-CoV-2, USA-WA1/2020; [2]): > 100 µM

Compound: CCC(CC)COC(=O)[C@H](C)N[P@](=O)(OC[C@H]1O[C@@](C#N)(c2ccc3c(N)ncnn23)[C@H](O)[C@@H]1O)Oc1ccccc1 [Remdesivir, reference compound]
- EC50 (SARS-CoV-2, USA-WA1/2020; Severe acute respiratory syndrome coronavirus 2, Vero 76, 120 h; concentration inhibiting CPE by 50%; i) and ii) are separate determinations): 1.9 to 6 µM

Compound: NAR-2′C-methyl-5′-cytidine ester [Compound 5]
- EC50 (SARS-CoV-2, USA-WA1/2020; [2]): > 100 µM

Compound: ((2R,3S,4R,5R)-5-(3-((((2R,3S,4R,5R)-5-(4-aminopyrrolo[2,1-f][1,2,4]triazin-7-yl)-5-cyano-3,4-dihydroxytetrahydrofuran-2-yl)methoxy)carbonyl)-1λ^4-pyridin-1-yl)-3,4-dihydroxytetrahydrofuran-2-yl)methyl hydrogen phosphate [Compound 2]
- Oral availability (NAD in murine liver): orally available
- NAD level in murine liver (NAD in murine liver; 8 hour time point, FIG. 1): boosted
- NAAD level in murine skeletal muscle [1]: boosted

Compound: NAR-2′C-Methyl-6-O-methyl-5′-guanosine ester [Compound 6]
- EC50 (SARS-CoV-2, USA-WA1/2020; [2]): > 100 µM

Compound: NC(=O)c1ccc[n+]([C@@H]2O[C@H](COP(=O)([O-])O)[C@@H](O)[C@H]2O)c1 [Nicotinamide mononucleotide (NMN), Nicotinamide mononucleotide, reference compound]
- EC50 (SARS-CoV-2, USA-WA1/2020; [2]): > 2000 µM

Compound: N#C[C@@]1(c2ccc3c(N)ncnn23)O[C@H](COP(=O)([O-])OC[C@H]2O[C@@H]([n+]3cccc(C(=O)O)c3)[C@H](O)[C@@H]2O)[C@@H](O)[C@H]1O [Compound 1, ((2R,3S,4R,5R)-5-(4-aminopyrrolo[2,1-f][1,2,4]triazin-7-yl)-5-cyano-3,4-dihydroxytetrahydrofuran-2-yl)methyl (((2R,3S,4R,5R)-5-(3-carboxy-1λ^4-pyridin-1-yl)-3,4-dihydroxytetrahydrofuran-2-yl)methyl)_phosphate]
- EC50 (SARS-CoV-2, USA-WA1/2020; Severe acute respiratory syndrome coronavirus 2, Vero 76, 120 h, concentration inhibiting CPE by 50%; Vero 76 cells, neutral red, day 5 post-infection; i) and ii) are separate determinations): 17 µM
- EC50 (SARS-CoV-2, USA-WA1/2020; concentration inhibiting CPE by 50%; Vero 76 cells, neutral red, day 5 post-infection; i) and ii) are separate determinations): 31 µM
